Laboratory results reported in the supplement of paper PMC10307832.

Tests used:
Assay in all cases: relative viability (nuclei count vs DMSO), 5 days (fraction); higher = more cells survive
[1] = compound: CCOC1=CC=CC=C1N=NC2=C(NN(C2=O)C3=NC(=CS3)C4=CC=CC=C4)C [BAM7] + O=C(c1cc(Cc2n[nH]c(=O)c3ccccc23)ccc1F)N1CCN(C(=O)C2CC2)CC1 [Olaparib] (partner 8 µM)
Outline: (§1)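 Lung cancer cell lines were seeded in 1536-well plates and dosed by pin tool the next day, with either a single drug or a fixed anchor-drug dose combined with five library-drug doses (not always all listed) spaced in √10 steps. Five days later, one step fixed the cells and stained their nuclei (final 0.05% Triton X-100, 1% formaldehyde, 1 ug/ml Hoechst), and nuclei were counted on 4× images. Relative viability is the nuclei count in treated wells divided by the count in vehicle wells, and each value is the median of duplicate plates.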

[2] = compound: CCOC1=CC=CC=C1N=NC2=C(NN(C2=O)C3=NC(=CS3)C4=CC=CC=C4)C [BAM7] + Nc1nc2[nH]cc(CCc3ccc(C(=O)N[C@@H](CCC(=O)O)C(=O)O)cc3)c2c(=O)[nH]1 [Pemetrexed] (partner 0.2 µM)
Outline: as §1

[3] = compound: CCn1c(-c2nonc2N)nc2c(C#CC(C)(C)O)ncc(OC[C@H]3CCCNC3)c21 + O=C(CCCCCCC(=O)Nc1ccccc1)NO [Vorinostat] (partner 1 µM)
Outline: as §1

[4] = compound: CCn1c(-c2nonc2N)nc2c(C#CC(C)(C)O)ncc(OC[C@H]3CCCNC3)c21 + CS(=O)(=O)N1CCN(Cc2cc3nc(-c4cccc5[nH]ncc45)nc(N4CCOCC4)c3s2)CC1 [Pictilisib] (partner 1 µM)
Outline: as §1

Cell Line	relative viability ([1]; first compound 0.5 µM)	relative viability ([1]; first compound 5 µM)	relative viability ([1]; first compound 15.81 µM)	relative viability ([1]; first compound 50 µM)	relative viability ([2]; first compound 0.5 µM)	relative viability ([2]; first compound 5 µM)	relative viability ([2]; first compound 15.81 µM)	relative viability ([2]; first compound 50 µM)	relative viability ([3]; first compound 0.01 µM)	relative viability ([3]; first compound 0.03162 µM)	relative viability ([3]; first compound 0.1 µM)	relative viability ([3]; first compound 0.3162 µM)	relative viability ([3]; first compound 1 µM)	relative viability ([4]; first compound 0.01 µM)	relative viability ([4]; first compound 0.03162 µM)	relative viability ([4]; first compound 0.1 µM)	relative viability ([4]; first compound 0.3162 µM)	relative viability ([4]; first compound 1 µM)
201T	0.774	0.746	0.691	0.765	0.299	0.324	0.327	0.313	0.952	0.995	0.919	0.894	0.958	0.722	0.667	0.701	0.644	0.723
A549	0.323	0.319	0.432	0.476	–	–	–	–	–	–	–	–	–	0.505	0.536	0.471	0.334	0.361
A-427	0.707	0.736	0.756	0.762	1.02	0.935	0.93	1.04	0.857	0.858	0.844	0.783	0.889	0.754	0.649	0.747	0.732	0.554
ABC-1	0.765	1.25	0.638	0.559	–	–	–	–	1.03	–	1.06	1.08	1.23	0.64	0.862	0.73	0.569	0.634
BEN	1.2	1.09	0.809	1.04	0.74	0.88	0.98	1	0.635	0.617	0.569	0.56	0.667	0.565	0.584	0.489	0.574	0.596
CAL-12T	0.764	0.653	0.652	0.711	1.31	1.27	0.987	1.31	0.747	0.679	0.683	0.675	0.603	0.327	0.374	0.351	0.306	0.329
COR-L23	0.379	0.343	0.332	0.346	0.209	0.182	0.193	0.206	0.433	0.558	0.437	0.368	0.387	0.794	0.759	0.727	0.705	0.674
COR-L 105	0.806	0.746	0.665	0.707	1.02	1.31	1.01	1.15	0.913	0.804	0.915	0.724	0.707	0.428	0.345	0.333	0.549	0.379
Calu-6	0.552	0.598	0.53	0.531	–	–	–	–	–	–	–	–	–	0.886	0.973	0.946	0.942	0.909
ChaGo-K-1	0.377	0.377	0.292	0.396	0.256	0.257	0.249	0.272	0.758	0.757	0.777	0.724	0.776	0.824	0.601	0.7	0.756	0.839
EBC-1	0.712	0.644	0.626	0.763	–	–	–	–	–	–	–	–	–	0.41	0.386	0.32	0.343	0.262
EKVX	0.863	0.929	0.839	0.788	0.425	0.409	0.349	0.377	0.705	0.765	0.689	0.726	0.807	0.466	0.468	0.425	0.411	0.463
EMC-BAC-2	0.485	0.476	0.469	0.565	0.439	0.458	0.474	0.452	0.203	–	0.448	0.429	0.448	0.563	0.51	0.497	0.493	0.528
EPLC-272H	0.465	0.935	0.594	0.651	0.328	0.371	0.401	0.322	0.507	0.426	0.573	0.393	0.571	0.287	0.282	0.286	0.301	0.314
H3255	0.597	0.666	0.417	0.405	0.578	0.543	0.548	0.545	0.832	0.704	0.815	0.693	0.448	0.457	0.526	0.421	0.465	0.486
HARA	0.96	0.838	0.827	0.809	0.228	0.244	0.222	0.292	0.487	0.488	0.638	0.44	0.532	0.474	0.359	0.376	0.458	0.419
HCC-15	0.849	0.695	0.687	0.728	0.225	0.216	0.22	0.227	0.97	0.858	0.894	0.769	0.881	0.689	0.724	0.685	0.738	0.743
HCC-44	0.986	0.952	0.883	0.987	0.648	0.642	0.635	0.63	1.07	1.07	1.05	1.07	1.04	0.613	0.562	0.477	0.679	0.556
HCC-78	1.02	0.759	0.631	0.815	0.929	0.913	0.963	0.863	0.434	0.452	0.455	0.416	0.436	0.191	0.217	0.194	0.187	0.177
HCC-366	0.328	0.263	0.226	0.307	0.107	0.117	0.125	0.115	0.278	0.3	0.329	0.367	0.372	0.235	0.214	0.12	0.131	0.218
